Results taken from ChEMBL document CHEMBL1201862, “PubChem BioAssay data set” (2004).
Calls of active or inactive are those of the source.

Legend:
Type in all cases: functional
[1] = target: T1, Low molecular weight phosphotyrosine protein phosphatase (Homo sapiens, UniProt P24666); conditions: read-out: IC50_Mean;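 further: Dose-response confirmation assay measuring inhibition of LMPTP enzyme activity by fluorescence intensity read-out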
T1 sequence (P24666 whole entry): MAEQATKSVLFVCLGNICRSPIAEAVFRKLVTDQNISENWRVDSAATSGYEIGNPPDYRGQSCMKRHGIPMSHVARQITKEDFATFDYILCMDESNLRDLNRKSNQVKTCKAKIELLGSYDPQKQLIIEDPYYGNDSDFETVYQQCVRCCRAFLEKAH

[2] = target: T2, Caspase-3 (Homo sapiens, UniProt P42574);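 further: Dose-response selectivity test against caspase-3 for candidate inhibitors of sentrin-specific proteases (SENPs)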
T2 sequence (P42574 whole entry): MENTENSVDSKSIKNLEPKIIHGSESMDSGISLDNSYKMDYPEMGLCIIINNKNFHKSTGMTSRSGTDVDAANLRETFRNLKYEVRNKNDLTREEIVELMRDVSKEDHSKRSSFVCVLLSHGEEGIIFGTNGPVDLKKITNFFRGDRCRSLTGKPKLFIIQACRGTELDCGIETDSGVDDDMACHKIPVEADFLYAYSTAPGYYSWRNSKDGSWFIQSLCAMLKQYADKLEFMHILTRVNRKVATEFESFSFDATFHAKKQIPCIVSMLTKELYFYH

[3] = target: T3, Sentrin-specific protease 7 (Homo sapiens, UniProt Q9BQF6);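 further: Luminescence-based dose-response confirmation of ultra-high-throughput screening hits, measuring inhibition of SENP7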
T3 sequence (Q9BQF6 whole entry): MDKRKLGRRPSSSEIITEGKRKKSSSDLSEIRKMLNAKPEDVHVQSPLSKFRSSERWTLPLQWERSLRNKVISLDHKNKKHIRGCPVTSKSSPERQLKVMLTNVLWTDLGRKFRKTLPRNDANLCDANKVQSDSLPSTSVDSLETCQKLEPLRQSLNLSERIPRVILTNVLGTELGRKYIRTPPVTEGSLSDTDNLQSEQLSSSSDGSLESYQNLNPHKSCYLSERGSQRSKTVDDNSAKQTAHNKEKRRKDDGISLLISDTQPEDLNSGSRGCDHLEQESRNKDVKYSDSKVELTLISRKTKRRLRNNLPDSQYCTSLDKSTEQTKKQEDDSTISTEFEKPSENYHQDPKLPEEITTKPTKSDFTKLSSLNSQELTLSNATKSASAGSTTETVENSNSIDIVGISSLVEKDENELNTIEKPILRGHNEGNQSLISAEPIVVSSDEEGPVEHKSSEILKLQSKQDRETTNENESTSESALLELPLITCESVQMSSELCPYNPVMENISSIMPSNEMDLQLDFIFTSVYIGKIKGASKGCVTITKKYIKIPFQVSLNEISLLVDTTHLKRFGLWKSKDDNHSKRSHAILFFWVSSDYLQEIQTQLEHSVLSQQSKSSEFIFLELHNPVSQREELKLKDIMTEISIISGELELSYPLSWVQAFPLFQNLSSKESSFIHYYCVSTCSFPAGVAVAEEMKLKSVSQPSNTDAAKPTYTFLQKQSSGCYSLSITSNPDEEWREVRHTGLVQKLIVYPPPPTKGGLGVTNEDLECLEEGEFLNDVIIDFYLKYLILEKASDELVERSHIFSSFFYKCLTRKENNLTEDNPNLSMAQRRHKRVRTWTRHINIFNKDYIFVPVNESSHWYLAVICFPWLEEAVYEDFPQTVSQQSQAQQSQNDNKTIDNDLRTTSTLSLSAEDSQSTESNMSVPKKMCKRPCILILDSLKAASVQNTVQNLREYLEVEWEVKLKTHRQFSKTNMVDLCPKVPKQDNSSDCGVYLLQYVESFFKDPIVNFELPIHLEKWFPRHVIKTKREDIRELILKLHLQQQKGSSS

[4] = target: T4, Sentrin-specific protease 6 (Homo sapiens, UniProt Q9GZR1);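 further: Luminescence-based dose-response confirmatory assay of SENP6 inhibition, following up an ultra-high-throughput screen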
T4 sequence (Q9GZR1 whole entry): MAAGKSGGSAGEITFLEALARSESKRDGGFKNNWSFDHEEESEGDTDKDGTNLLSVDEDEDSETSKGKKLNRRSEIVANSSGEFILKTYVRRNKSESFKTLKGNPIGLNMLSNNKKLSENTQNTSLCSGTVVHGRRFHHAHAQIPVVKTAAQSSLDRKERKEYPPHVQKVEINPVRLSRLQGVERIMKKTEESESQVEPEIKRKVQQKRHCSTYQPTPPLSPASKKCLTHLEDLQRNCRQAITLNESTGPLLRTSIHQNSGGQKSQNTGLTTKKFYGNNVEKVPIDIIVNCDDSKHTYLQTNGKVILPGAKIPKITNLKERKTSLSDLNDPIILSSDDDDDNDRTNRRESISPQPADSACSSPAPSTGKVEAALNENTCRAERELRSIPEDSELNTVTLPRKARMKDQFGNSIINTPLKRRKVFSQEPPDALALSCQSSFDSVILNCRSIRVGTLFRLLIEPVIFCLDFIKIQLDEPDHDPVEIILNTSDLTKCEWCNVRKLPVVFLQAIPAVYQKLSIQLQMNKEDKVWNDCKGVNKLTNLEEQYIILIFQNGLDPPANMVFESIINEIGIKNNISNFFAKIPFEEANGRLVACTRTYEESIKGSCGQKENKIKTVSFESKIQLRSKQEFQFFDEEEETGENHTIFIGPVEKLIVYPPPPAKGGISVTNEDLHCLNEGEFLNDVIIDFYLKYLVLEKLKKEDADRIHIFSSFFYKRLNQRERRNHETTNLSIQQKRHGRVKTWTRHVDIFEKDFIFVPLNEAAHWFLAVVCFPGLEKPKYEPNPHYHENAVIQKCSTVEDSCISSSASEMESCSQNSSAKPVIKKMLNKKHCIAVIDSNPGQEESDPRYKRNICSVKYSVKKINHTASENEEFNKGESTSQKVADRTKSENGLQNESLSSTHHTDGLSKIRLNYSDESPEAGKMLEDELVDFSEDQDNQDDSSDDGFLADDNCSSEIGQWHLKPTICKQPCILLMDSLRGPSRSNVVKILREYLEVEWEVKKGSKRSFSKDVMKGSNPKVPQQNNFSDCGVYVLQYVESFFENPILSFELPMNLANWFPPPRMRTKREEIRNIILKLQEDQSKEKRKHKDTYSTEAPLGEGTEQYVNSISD

[5] = target: T5, Sentrin-specific protease 8 (Homo sapiens, UniProt Q96LD8);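 further: luminescence read-out of SENP8 inhibition, dose-response confirmation following an ultra-high-throughput screen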
T5 sequence (Q96LD8 whole entry): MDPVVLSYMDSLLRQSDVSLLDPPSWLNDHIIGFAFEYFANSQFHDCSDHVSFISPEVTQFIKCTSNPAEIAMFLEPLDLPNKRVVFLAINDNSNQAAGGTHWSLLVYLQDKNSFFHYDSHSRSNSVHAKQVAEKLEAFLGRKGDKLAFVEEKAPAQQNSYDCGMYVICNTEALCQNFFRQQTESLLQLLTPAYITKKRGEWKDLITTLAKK

[6] = target: T6, Heat shock factor protein 1 (Mus musculus, UniProt P38532); test: enhancement of HSF1-driven luciferase signal – cell-based, NIH3T3, luminescence, dose retest, confirmation (AID 435004);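 further: stress induced by proteasome inhibitor MG132 added 30 min after compound; luciferase reporter driven by HSF1 response element in NIH3T3 cells; actives raise luminescence as potentiators of the MG132 stress response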
T6 sequence (P38532 whole entry): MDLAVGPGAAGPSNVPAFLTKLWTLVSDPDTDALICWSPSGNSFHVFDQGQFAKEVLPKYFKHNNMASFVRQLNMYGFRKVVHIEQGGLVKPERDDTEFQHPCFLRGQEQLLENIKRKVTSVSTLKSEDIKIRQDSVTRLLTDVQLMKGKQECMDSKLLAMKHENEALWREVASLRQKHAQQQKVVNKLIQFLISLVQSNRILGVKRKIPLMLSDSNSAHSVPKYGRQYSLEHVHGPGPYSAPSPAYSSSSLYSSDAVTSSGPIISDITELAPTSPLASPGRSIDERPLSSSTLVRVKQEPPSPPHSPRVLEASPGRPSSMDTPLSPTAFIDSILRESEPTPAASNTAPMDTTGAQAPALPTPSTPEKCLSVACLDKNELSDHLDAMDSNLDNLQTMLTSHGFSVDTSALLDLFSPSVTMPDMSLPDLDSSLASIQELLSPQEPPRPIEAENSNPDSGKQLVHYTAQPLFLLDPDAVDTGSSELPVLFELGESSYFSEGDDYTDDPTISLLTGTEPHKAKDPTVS

[7] = target: T7, Endoribonuclease toxin MazF (Escherichia coli K-12, UniProt P0AE70); test: activation of MazEF endoribonuclease cleavage – biochemical, fluorescence, single-stranded RNA substrate, uHTS hits, dose response (AID 588481)
T7 sequence (P0AE70 whole entry): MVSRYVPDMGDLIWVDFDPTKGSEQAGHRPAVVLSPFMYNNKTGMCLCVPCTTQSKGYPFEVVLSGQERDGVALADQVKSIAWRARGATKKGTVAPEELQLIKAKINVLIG

[8] = target: T7, Endoribonuclease toxin MazF; test: substrate-only fluorescence increase artefacts – biochemical, single-stranded RNase substrate, counter-screen for MazEF activator project, dose response (AID 588502)

| Structure (SMILES) | IC50 [1] | IC50 [2] | IC50 [3] | IC50 [4] | IC50 [5] | EC50 [6] | EC50 [7] | EC50 [8] |
| --- | --- | --- | --- | --- | --- | --- | --- | --- |
| CN(C)/C=C/C(=O)c1ccc(OCCN(C)c2ccccn2)cc1 | 29.9 µM (inactive) | – | – | – | – | – | – | – |
| C=COC(=O)CSc1nc(-c2cccs2)ccc1C#N | – | 13.3 µM (active) | 16.4 µM (active) | 6.53 µM (active) | 8.96 µM (active) | – | – | – |
| Cc1ccc(C(=O)c2sc3nsc(C)c3c2N)cc1 | – | 28.9 µM (active) | 4.6 µM (active) | > 100 µM (inactive) | > 100 µM (inactive) | > 260 µM (inconclusive) | – | – |
| CCOC(=O)CSc1nc2ccc(C)cc2cc1C#N | – | – | – | – | – | – | 9.32 µM (active) | > 99 µM (inactive) |
| CS(=O)(=O)Nc1ccc(C(=O)Nc2ccc3ccccc3c2)cc1 | – | 6.3 µM (active) | 2.98 µM (active) | > 100 µM (inactive) | > 100 µM (inactive) | – | – | – |
| Cc1cccc(C(=O)OCc2cc3ccccc3[nH]c2=O)c1 | – | – | – | – | – | – | > 99 µM (inactive) | > 99 µM (inactive) |
| O=C(Nc1cccc(Cl)c1)N1CCc2ccccc2C1 | – | 18.9 µM (active) | 7.31 µM (active) | 25.5 µM (active) | 26.1 µM (active) | – | – | – |
| CCn1cc(C=C2C(=O)c3ccccc3C2=O)c2ccccc21 | – | – | – | – | – | – | > 99 µM (inactive) | 35.9 µM (inactive) |
| O=C1CSC(=S)N1N=Cc1c(O)ccc2ccccc12 | – | – | – | – | – | – | > 99 µM (inactive) | > 99 µM (inactive) |
| COCCCn1c(=O)/c(=C\c2ccccc2OC(F)F)s/c1=C(/C#N)C(=O)NCCOC | – | – | – | – | – | – | > 99 µM (inactive) | > 99 µM (inactive) |
